Data reported in paper PMC5398698, “Uncovering the molecular and physiological processes of anticancer leads binding human serum albumin: A physical insight into drug efficacy” (PLoS ONE, 2017).
Read-outs that look alike come from different tables or passages of the source.

Tests used:
[1] = biological target: T1, Human serum albumin (HSA) (Homo sapiens, UniProt P02768); test: Steady-state fluorescence quenching of HSA by anticancer leads; assay type: binding; details: for ΔG: temperature-dependent fluorescence quenching
T1 construct: purchased Sigma-Aldrich A3782
T1 sequence (P02768 25-609): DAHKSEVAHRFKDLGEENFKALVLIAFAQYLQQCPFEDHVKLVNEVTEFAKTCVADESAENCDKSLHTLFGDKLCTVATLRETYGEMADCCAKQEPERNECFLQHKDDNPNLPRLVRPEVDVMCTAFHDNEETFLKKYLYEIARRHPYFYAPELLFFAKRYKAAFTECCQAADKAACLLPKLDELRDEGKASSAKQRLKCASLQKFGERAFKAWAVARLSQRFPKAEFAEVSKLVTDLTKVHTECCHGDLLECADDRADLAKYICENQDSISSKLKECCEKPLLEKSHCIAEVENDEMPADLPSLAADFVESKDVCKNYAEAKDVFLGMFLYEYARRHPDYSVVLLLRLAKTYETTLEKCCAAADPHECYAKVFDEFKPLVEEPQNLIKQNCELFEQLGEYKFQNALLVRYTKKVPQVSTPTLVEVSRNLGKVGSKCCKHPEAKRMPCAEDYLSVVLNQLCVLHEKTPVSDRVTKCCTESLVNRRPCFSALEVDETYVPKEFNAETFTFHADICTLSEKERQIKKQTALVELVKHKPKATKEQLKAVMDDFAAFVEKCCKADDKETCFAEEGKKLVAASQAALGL
Description: Steady-state fluorescence spectra were recorded on an Eclipse fluorescence spectrophotometer (Agilent Cary, USA) with a 1 cm path length quartz cuvette at 293 K and 298 K, respectively. Sample temperature was kept within ± 0.2 degree by recycled water throughout the experiment. The excitation and emission band passes were all set at 5 nm by keeping the excitation wavelength at 290 nm to achieve maximum fluorescence emission. The emission spectra was measured in the region of 305–450 nm, and the fluorescence intensity at peak position 340 nm was extracted for further analysis. HSA was diluted from stock solution with reaction buffer to a concentration of 10 μM for each quenching experiment. Titration was performed by successive addition of 1 mM anticancer leads into quartz cuvette, and the minor intensity decrease due to volume change was corrected by the control experiment.
In Fluorescence quenching, the inner filter effect (IFE) is of importance due to its effect on the emission intensity. One of the biggest causes of the IFE is the re-absorption of the emitted light in the excitation and emission region. It is an important issue that these effects cause severe underestimation of the fluorescence intensity measured because the concentration of the quencher increases when a Stern-Volmer analysis is carried out, and therefore the ability of the quencher to absorb the emitted light will also increase.
Where Aem and Aex represent the absorbance of small moecule at emission and excitation wavelength, respectively. F0 and Fc represent the observed fluorescence intensity and corrected fluorescence intensity, respectively.
In an attempt to gain insight into the molecular mechanism of HSA association, we have determined the binding mechanism, binding constant, binding site, and the number of binding sites. […] (1) Where F and F0 is the steady state fluorescence intensity in the presence and absence of quencher, respectively; Kq, τ0 and [Q] is the quenching rate constant, the average lifetime of the molecule without quencher and the concentration of quencher, respectively.
Modified Stern-Volmer plots are shown in Fig 3C and 3D, showing good linearity to modified Stern-Volmer equation: log[(F0−F)/F]=logKA+nlog[Q] (2)
F0−F/F0=Bmax(KA[Q])^h/1+(KA[Q])^h+Pnsb×[Q] (3)
Where F and F0 are the steady state fluorescence intensity in the presence and absence of quencher, respectively; [Q] is the concentration of quencher, Bmax is the maximum independent binding site classes, KA is the effective binding affinity; h is the Hill coefficient that describes the degree of ligand binding cooperativity and Pnsb is the nonspecific binding coefficient.
Usually, the types of interaction forces between small molecules and macromolecules mainly include hydrogen bonds, van der Waals forces, electrostatic interactions and hydrophobic interactions. To estimate the binding mode, the thermodynamic parameters, ΔH, ΔS and ΔG are often considered. On the basis of the characteristic signs of the thermodynamic parameters, the interaction forces between small molecule and protein can be assigned to hydrophobic interaction (ΔH > 0, ΔS > 0), van der Waals force (ΔH < 0, ΔS < 0) and electrostatic attraction (ΔH < 0, ΔS > 0). The entropy and enthalpy can be considered constant at a constant temperture, which is regulated by the van’t Hoff equation: lnKA=−ΔH/RT+ΔS/R (4)

[2] = biological target: T1, Human serum albumin (HSA); test: Isothermal titration calorimetry (ITC) of leads binding HSA; details: 310 K
Description: The calorimetry measurement was carried out by isothermal titration calorimetry (ITC) (TA Instruments, USA) at 310 K. HSA in different reaction buffers (0.01 M PBS and 0.025 M MES) were extensively dialyzed before titration. […] The titration was afterward started with continuously stirring at 250 rpm. The raw heat rate data were integrated under injection peaks to obtain the reaction heat of each injection after substracting dilution heat which was measured by injecting with a blank control titration. The calculated heat changes were analyzed using the NANOanalyze software (TA Instruments, USA) and replotted with Origin 8.5. The free energy change (ΔG), enthalpy change (ΔH) and entropy change (ΔS) were calculated according to the thermodynamic formulas below: ΔG=−RTlnKA=ΔH−TΔS
Where KA is the association constant at the absolute temperature T (310 K) and R represents the gas constant (8.3151 J mol^-1K^-1).

[3] = biological target: T1, Human serum albumin (HSA); test: SPR binding kinetic measurement on immobilized HSA
Description: Binding kinetic measurement was performed using Reichert 4-chanel SPR instrument Reichert4SPR (Reichert, USA). HSA was immobilized on carboxymethyl dextran chip at the condition of 0.1 mg/mL protein in 10 mM sodium acetate (pH 4.5). The final density is about 12,000 RU and flow rate is 20 μl/min. During immobilizing, the sensor chip was preconditioned with 3-min injection of double diluted water. Thereafter, the first flow cell surface was activated through using 0.05 M N-hydroxysuccinimide (NHS)/0.2 M 1-ethyl-3-(3-dimethylaminopropyl)carbodiimide hydrochloride (EDC) for 7 min, and then functionalized by injecting a solution of HSA (0.1 mg/mL) in 10 mM sodium acetate buffer (pH 4.5) for 20 min. Finally, unreacted NHS groups were deactivated with 1 M ethanolamine (pH 8.5) for 10 min. Simultaneously, the control flow cell was treated using the same conditions as described above. […] Final data obtained were corrected for instrumental and bulk artifacts by double referencing to a control sensor chip surface and blank buffer injection. The binding responses were concentration-dependent and dissociation constant KD values were derived from 1:1 kinetic model as well as steady state analysis using TraceDrawer software (Reichert, USA).

[4] = biological target: T1, Human serum albumin (HSA); test: Fluorescence resonance energy transfer (FRET) distance HSA W214 to lead; assay type: binding; details: Forster theory; k^2 = 2/3, N = 1.36, Φ = 0.15
Source text: Fluorescence resonance energy transfer (FRET) occurs when the UV absorption spectrum of small molecule (acceptor) overlaps with the fluorescence emission spectrum of fluoreophore (donor). The fluorescence emission peak of HSA mostly locates in the range of the UV-vis absorption spectra of the two anticancer leads (Fig 5A and 5B). This indicates the possibility of FRET occuring between HSA and anticancer leads. According to Forster’s non-radiative energy transfer theory, the distance r between donor W214 of HSA and the acceptor of small molecule is determined by the relationship below: E=1−F/F0=R0^6/R0^6+r^6 (5) where E is the energy transfer efficiency; F and F0 are the fluorescence intensity in the presence and absence of quencher. […] In this case here, k^2 = 2/3 is for random orientation as in fluid solution, N = 1.36, Φ = 0.15, and J is calculated as: J=∑F(λ)ε(λ)λ^4Δλ/∑F(λ)Δλ (7) where F(λ) is the fluorescence intensity of the fluorescence donor of wavelength λ; and ε(λ) is the molar absorption coefficient calculated by Lambert-Beer relationship ε(λ) = A(λ)/cl at wavelength λ. The integration step was chosen to be the scanning data interval of 1 nm.

[5] = tested on: plasma proteins; test: Estimate of fraction bound to plasma proteins from association constants; design: species or system human; details: estimated with Kd / ([P]f + Kd)
Source text: The function of HSA as drug carrier may facilitate drug access to the action site and be related to drug safety issues. Application of HSA on drug delivery may therefore be important in anticancer therapy, which has been taken into account in estimating therapeutic outcomes, particularly for highly bound compounds (defined as < 5% free drug compounds in blood). The free to bound drug rates can be estimated by using the formula Kd / ([P]f + Kd) through approximating the free protein concentration as [P]f = [P]T − [L]T [41]. […] Therefore, the affinity determines the steady state concentration of unbound or exposed drug in the plasma, maintaining a concentration gradient between the intestinal lumen and plasma, which is considered as the only fraction exerting the bioactivity. […] Moreover, both hepatic uptake and glomerular filtration are directly proportional to the free drug fraction presented in the plasma while drugs are modulated by the affinity difference of the plasma and tissue proteins. If a drug is highly bound to HSA and has a high extraction raio, the binding promotes metabolism by transporting the drug to liver, resulting in the decrease of free drug fraction. On the other hand, if a drug has a low liver extraction ratio, metabolism will be decreased by high HSA binding. […]

## CC(=O)OCCC(C)CCC=C(C)C (centres unmarked) [NSC48693]
[1]; 293 K
  n (reaction stoichiometric number, modified Stern-Volmer): 0.91 ± 0.013
[1]; 293 K, fit to Eq (2)
  binding constant KA (modified Stern-Volmer): 3.31 ± 0.16 × 10^4 M^-1
[1]; 293 K, one class of binding sites
  Hill coefficient h (nonlinear regression fitting): ~1.0
[1]; T 293 K
  ΔG: -5.614 kcal/mol
[1]; T 298 K
  ΔG: -5.636 kcal/mol
[1]; as quoted in the ITC comparison
  n obtained by Hill equation: 0.91
[1]; fluorescence lifetime of tryptophan in HSA around 10^-8 s, 10 μM HSA
  quenching rate constant Kq (Stern-Volmer): 1.36 ± 0.016 × 10^12 M^-1s^-1
[1]; van't Hoff, 293 K and 298 K
  ΔH: -4.548 kcal/mol
  ΔS: 15.27 J mol^-1 K^-1
[2]
  stoichiometry number: 0.94 ± 0.06
  ΔG: -6.898 kcal/mol
  ΔH: -5.581 ± 0.605 kcal/mol
  ΔS: 17.81 J mol^-1 K^-1
[2]; one-site independent model
  binding constant (KA): 7.29 ± 2.68 × 10^4 M^-1
[3]
  dissociation rate slower than that of NSC290956: approximately 5 fold
[3]; SPR sensorgram shape
  kinetic behavior: fast-on and slow-off
[3]; SPR, 1:1 kinetic model
  Ka (association rate constant): 2410 M⁻¹ s⁻¹
  koff (dissociation rate constant): 0.0333 s⁻¹
[3]; SPR, 1:1 kinetic model, read-out: KD (dividing kinetic parameters, 1:1 model)
  Kd: 13.8 µM
[3]; SPR, steady-state phase data, read-out: Steady State KD
  Kd: 12.3 µM
[3]; as measured with different experimental methods
  binding affinity to HSA larger than that of NSC290956: 3~8 fold
[4]
  donor-acceptor distance r between HSA and lead: 3.65 nm
[5]
  compound bound to plasma proteins: over 98%
